From patent publication US20100248390A1, “COMPOSITIONS AND METHODS FOR IDENTIFYING LIGANDS OF ODORANT RECEPTORS” (DUKE UNIVERSITY, priority 2009, published 2010)

Assays:
[1] = target: T1, mouse odorant receptors (ORs) (Mus musculus, UniProt P23275); experiment: CRE-luciferase assay of odorant receptor activation (Dual-Glo, Hana3A cells, RTP1S), dose-response EC50; assay type: cell-based; conditions: receptor MOR256-17; read-out: log EC50 of odorant at MOR256-17 (0 = no response) (converted)
T1 construct: OR open reading frames were amplified from genomic DNA; expressed in transfected cells; host or cells: Hana3A cells, co-transfected with RTP1S, CRE-luciferase and pRL-SV40
T1 sequence (P23275 1-312): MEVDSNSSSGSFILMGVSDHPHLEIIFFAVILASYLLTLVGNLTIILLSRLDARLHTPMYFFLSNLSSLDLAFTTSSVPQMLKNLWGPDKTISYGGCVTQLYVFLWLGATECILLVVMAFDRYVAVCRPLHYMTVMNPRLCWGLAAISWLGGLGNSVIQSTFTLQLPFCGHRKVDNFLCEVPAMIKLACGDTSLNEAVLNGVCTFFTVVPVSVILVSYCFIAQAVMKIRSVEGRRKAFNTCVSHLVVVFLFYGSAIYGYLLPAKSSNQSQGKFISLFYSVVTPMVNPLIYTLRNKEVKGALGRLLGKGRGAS

[2] = target: T2, mouse odorant receptors (ORs) (Mus musculus, UniProt Q8VG42); experiment: as above; assay type: cell-based; conditions: receptor MOR204-6; for log EC50, MOR204-6: 0 = no response
T2 construct: OR open reading frames were amplified from genomic DNA; expressed in transfected cells; host or cells: Hana3A cells, co-transfected with RTP1S, CRE-luciferase and pRL-SV40
T2 sequence (Q8VG42 1-310): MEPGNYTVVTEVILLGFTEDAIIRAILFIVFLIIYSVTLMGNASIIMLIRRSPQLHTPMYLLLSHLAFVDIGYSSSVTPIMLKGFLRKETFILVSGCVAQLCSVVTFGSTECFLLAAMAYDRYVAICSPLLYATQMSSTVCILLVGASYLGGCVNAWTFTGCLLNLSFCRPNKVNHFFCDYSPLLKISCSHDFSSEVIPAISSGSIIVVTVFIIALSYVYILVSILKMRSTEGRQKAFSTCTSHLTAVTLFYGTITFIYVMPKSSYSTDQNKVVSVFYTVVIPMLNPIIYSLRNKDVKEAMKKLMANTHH

SMILES	EC50 [1]	log EC50, MOR204-6 [2]	other results
CCCCCCCCC(=O)O [Nonanoic acid]	20.2 µM		
C=C(C)C1CC=C(C)C(=O)C1 (single isomer, unassigned; (-)) [(−)-Carvone]		−3.625	
CCCCCCCCS [Octanethiol]	40.9 µM		
CCCCCCCC(=O)O [Octanoic Acid]	38.9 µM		
O=c1ccc2ccccc2o1 [Coumarin]			EC50 ([2]; read-out: log EC50 (Table 4 value), MOR204-6 (converted)): 7.96 µM
C=C(C)[C@H]1CC=C(C)C(=O)C1 [(+)-Carvone]		−3.85	
